Data published in ChEMBL document CHEMBL3044624, “Cycloate, an inhibitor of fatty acid elongase, modulates the metabolism of very-long-side-chain alkylresorcinols in rye seedlings” (Pest Manag Sci, 2009).

What was measured:
[1] = tested on: Secale cereale; test: Change in alkylresorcinol homologue composition in dry shoots of etiolated Secale cereale (rye) seedlings grown from compound-treated seeds at 29 +/-2 degC assessed as C19:0 content at 46 uM by GC/EI-MS analysis (reference value: 1.06 mg/kg dry weight); format: functional
[2] = tested on: Secale cereale; test: Change in alkylresorcinol homologue composition in dry shoots of etiolated Secale cereale (rye) seedlings grown from compound-treated seeds at 22 +/-2 degC assessed as C19:0 content at 46 uM by GC/EI-MS analysis (reference value: 1.83 mg/kg dry weight); format: functional
[3] = tested on: Secale cereale; test: Change in alkylresorcinol homologue composition in dry shoots of etiolated Secale cereale (rye) seedlings grown from compound-treated seeds at 22 +/-2 degC assessed as C19:1 content at 46 uM by GC/EI-MS analysis (reference value: 0.24 mg/kg dry weight); format: functional
[4] = tested on: Secale cereale; test: Change in alkylresorcinol homologue composition in dry shoots of etiolated Secale cereale (rye) seedlings grown from compound-treated seeds at 22 +/-2 degC assessed as C21:0 content at 46 uM by GC/EI-MS analysis (reference value: 1.49 mg/kg dry weight); format: functional
[5] = tested on: Secale cereale; test: Change in alkylresorcinol homologue composition in dry shoots of etiolated Secale cereale (rye) seedlings grown from compound-treated seeds at 22 +/-2 degC assessed as C17:1 content at 46 uM by GC/EI-MS analysis (reference value: 0.11 mg/kg dry weight); format: functional
[6] = tested on: Secale cereale; test: Change in alkylresorcinol homologue composition in dry shoots of etiolated Secale cereale (rye) seedlings grown from compound-treated seeds at 15 +/-2 degC assessed as C21:0 content at 46 uM by GC/EI-MS analysis (reference value: 0.78 mg/kg dry weight); format: functional
[7] = tested on: Secale cereale; test: Change in alkylresorcinol homologue composition in dry shoots of etiolated Secale cereale (rye) seedlings grown from compound-treated seeds at 22 +/-2 degC assessed as C17:0 content at 46 uM by GC/EI-MS analysis (reference value: 1.35 mg/kg dry weight); format: functional
[8] = tested on: Secale cereale; test: Change in alkylresorcinol homologue composition in dry shoots of green Secale cereale (rye) seedlings grown from compound-treated seeds at 22 +/-2 degC assessed as C15:0 content at 46 uM by GC/EI-MS analysis (reference value: 0.24 mg/kg dry weight); format: functional
[9] = tested on: Secale cereale; test: Change in alkylresorcinol homologue composition in dry shoots of etiolated Secale cereale (rye) seedlings grown from compound-treated seeds at 29 +/-2 degC assessed as C21:0 content at 46 uM by GC/EI-MS analysis (reference value: 0.96 mg/kg dry weight); format: functional
[10] = tested on: Secale cereale; test: Change in alkylresorcinol content in dry shoots of green Secale cereale (rye) seedlings grown from compound-treated seeds at 22 +/-2 degC at 46 uM by thin layer chromatography (reference value: 3.13 +/-0.07 mg/kg dry weight); format: functional
[11] = tested on: Secale cereale; test: Change in alkylresorcinol homologue composition in dry shoots of etiolated Secale cereale (rye) seedlings grown from compound-treated seeds at 15 +/-2 degC assessed as C23:0 content at 46 uM by GC/EI-MS analysis (reference value: 0.33 mg/kg dry weight); format: functional
[12] = tested on: Secale cereale; test: Change in alkylresorcinol homologue composition in dry shoots of green Secale cereale (rye) seedlings grown from compound-treated seeds at 29 +/-2 degC assessed as C17:1 content at 46 uM by GC/EI-MS analysis (reference value: 0.08 mg/kg dry weight); format: functional
[13] = tested on: Secale cereale; test: Change in alkylresorcinol homologue composition in dry shoots of etiolated Secale cereale (rye) seedlings grown from compound-treated seeds at 29 +/-2 degC assessed as C25:0 content at 46 uM by GC/EI-MS analysis (reference value: 0.06 mg/kg dry weight); format: functional
[14] = tested on: Secale cereale; test: Change in alkylresorcinol homologue composition in dry shoots of green Secale cereale (rye) seedlings grown from compound-treated seeds at 22 +/-2 degC assessed as C23:0 content at 46 uM by GC/EI-MS analysis (reference value: 0.54 mg/kg dry weight); format: functional
[15] = tested on: Secale cereale; test: Change in alkylresorcinol homologue composition in dry shoots of green Secale cereale (rye) seedlings grown from compound-treated seeds at 22 +/-2 degC assessed as C19:0 content at 46 uM by GC/EI-MS analysis (reference value: 0.56 mg/kg dry weight); format: functional
[16] = tested on: Secale cereale; test: Change in alkylresorcinol content in dry shoots of etiolated Secale cereale (rye) seedlings grown from compound-treated seeds at 29 +/-2 degC at 46 uM by thin layer chromatography (reference value: 3.03 +/-0.02 mg/kg dry weight); format: functional
[17] = tested on: Secale cereale; test: Change in alkylresorcinol homologue composition in dry shoots of etiolated Secale cereale (rye) seedlings grown from compound-treated seeds at 29 +/-2 degC assessed as C21:1 content at 46 uM by GC/EI-MS analysis (reference value: 0.04 mg/kg dry weight); format: functional
[18] = tested on: Secale cereale; test: Change in alkylresorcinol homologue composition in dry shoots of green Secale cereale (rye) seedlings grown from compound-treated seeds at 15 +/-2 degC assessed as C15:0 content at 46 uM by GC/EI-MS analysis (reference value: 0.24 mg/kg dry weight); format: functional
[19] = tested on: Secale cereale; test: Toxicity against etiolated Secale cereale (rye) seedlings assessed as fresh biomass of seedling grown at 29 +/-2 degC at 46 uM measured at 5 days after compound-treated seed germination (reference value: 16.03 +/-0.67 g); format: organism-based; conditions: in vivo, 120 h
[20] = tested on: Secale cereale; test: Change in alkylresorcinol homologue composition in dry shoots of green Secale cereale (rye) seedlings grown from compound-treated seeds at 22 +/-2 degC assessed as C21:1 content at 46 uM by GC/EI-MS analysis (reference value: 0.09 mg/kg dry weight); format: functional
[21] = tested on: Secale cereale; test: Change in alkylresorcinol homologue composition in dry shoots of green Secale cereale (rye) seedlings grown from compound-treated seeds at 15 +/-2 degC assessed as C23:0 content at 46 uM by GC/EI-MS analysis (reference value: 0.59 mg/kg dry weight); format: functional
[22] = tested on: Secale cereale; test: Change in alkylresorcinol homologue composition in dry shoots of green Secale cereale (rye) seedlings grown from compound-treated seeds at 29 +/-2 degC assessed as C19:0 content at 46 uM by GC/EI-MS analysis (reference value: 0.48 mg/kg dry weight); format: functional

CCSC(=O)N(CC)C1CCCCC1 [CYCLOATE]
Activity [1]: 3.74 mg/kg | Activity [2]: 0.7 mg/kg | Activity [3]: 0.21 mg/kg | Activity [4]: 0.48 mg/kg | Activity [5]: 0.11 mg/kg | Activity [6]: 0.69 mg/kg | Activity [7]: 0.83 mg/kg | Activity [8]: 0.2 mg/kg | Activity [9]: 1.2 mg/kg | Activity [10]: 3.17 mg/kg | Activity [11]: 0.17 mg/kg | Activity [12]: 0.75 mg/kg | Activity [13]: 0.23 mg/kg | Activity [14]: 0.13 mg/kg | Activity [15]: 0.87 mg/kg | Activity [16]: 14.34 mg/kg | Activity [17]: 0.33 mg/kg | Activity [18]: 0.75 mg/kg | Activity [19]: 21 g | Activity [20]: 0.05 mg/kg | Activity [21]: 0.17 mg/kg | Activity [22]: 3.88 mg/kg
